Measurements from ChEMBL document CHEMBL4665718, “Inhibitory effect of oolonghomobisflavan B on osteoclastogenesis by suppressing p38 MAPK activation” (Bioorg Med Chem Lett, 2020).
Activity calls are given as the source filed them. No cut-off for these calls is given here.

What was measured:
[1] = test system: BMDM; assay: Inhibition of M-CSF-induced ERK activation in BMM (unknown origin) at 5 uM pretreated for 1 hr followed by M-CSF stimulation for 5 to 30 mins by Western blot analysis; assay type: tissue-based
[2] = test system: BMDM; assay: Inhibition of p38 MAPK in BMM (unknown origin) assessed as suppression of RANKL/M-CSF-induced CTSK upregulation at 5 uM measured after 3 days by Western blot analysis; assay type: tissue-based; conditions: time 3.0 day
[3] = test system: BMDM; assay: Inhibition of M-CSF-induced Akt activation in BMM (unknown origin) at 5 uM pretreated for 1 hr followed by M-CSF stimulation for 5 to 30 mins by Western blot analysis; assay type: tissue-based
[4] = test system: BMDM; assay: Inhibition of RANKL-induced JNK activation in BMM (unknown origin) at 5 uM pretreated for 1 hr followed by RANKL stimulation for 5 to 15 mins by Western blot analysis; assay type: tissue-based
[5] = molecular target: T1, NF-kappa-B inhibitor alpha (Homo sapiens) (UniProt P25963); assay: Inhibition of RANKL-induced IkappaB-alpha activation in BMM (unknown origin) at 5 uM pretreated for 1 hr followed by RANKL stimulation for 5 to 15 mins by Western blot analysis; assay type: tissue-based
T1 sequence (whole entry): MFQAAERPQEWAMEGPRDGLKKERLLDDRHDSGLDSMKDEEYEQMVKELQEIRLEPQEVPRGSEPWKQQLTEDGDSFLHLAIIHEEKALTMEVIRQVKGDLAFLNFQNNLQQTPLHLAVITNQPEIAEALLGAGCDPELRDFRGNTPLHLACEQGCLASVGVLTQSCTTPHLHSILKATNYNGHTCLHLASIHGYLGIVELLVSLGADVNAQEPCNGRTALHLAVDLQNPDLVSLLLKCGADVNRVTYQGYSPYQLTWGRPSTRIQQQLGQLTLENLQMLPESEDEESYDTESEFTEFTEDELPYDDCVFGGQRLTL

[6] = test system: BMDM; assay: Inhibition of RANKL-induced Akt activation in BMM (unknown origin) at 5 uM pretreated for 1 hr followed by RANKL stimulation for 5 to 15 mins by Western blot analysis; assay type: tissue-based
[7] = test system: BMDM; assay: Inhibition of RANKL-induced ERK activation in BMM (unknown origin) at 5 uM pretreated for 1 hr followed by RANKL stimulation for 5 to 15 mins by Western blot analysis; assay type: tissue-based
[8] = test system: BMDM; assay: Inhibition of RANKL-induced p38 activation in BMM (unknown origin) at 5 uM pretreated for 1 hr followed by RANKL stimulation for 5 to 15 mins by Western blot analysis; assay type: tissue-based
[9] = test system: BMDM; assay: Inhibition of p38 MAPK in BMM (unknown origin) assessed as suppression of RANKL/M-CSF-induced actin ring formation at 5 uM incubated for 4 days by rhodamine phallodin/DAPI staining based analysis; conditions: time 4.0 day
[10] = test system: BMDM; assay: Inhibition of p38 MAPK in BMM (unknown origin) assessed as suppression of RANKL/M-CSF-induced Nftac1 gene upregulation at 5 uM measured after 3 days by RT-PCR analysis; assay type: tissue-based; conditions: time 3.0 day
[11] = test system: BMDM; assay: Inhibition of p38 MAPK in BMM (unknown origin) assessed as suppression of RANKL/M-CSF-induced Acp5 gene upregulation at 5 uM measured after 3 days by RT-PCR analysis; assay type: tissue-based; conditions: time 3.0 day
[12] = test system: BMDM; assay: Inhibition of p38 MAPK in BMM (unknown origin) assessed as suppression of RANKL/M-CSF-induced CTSK gene upregulation at 5 uM measured after 3 days by RT-PCR analysis; assay type: tissue-based; conditions: time 3.0 day
[13] = test system: BMDM; assay: Inhibition of p38 MAPK in BMM (unknown origin) assessed as suppression of RANKL/M-CSF-induced DCSTAMP gene upregulation at 5 uM measured after 3 days by RT-PCR analysis; assay type: tissue-based; conditions: time 3.0 day
[14] = test system: BMDM; assay: Inhibition of p38 MAPK in BMM (unknown origin) assessed as suppression of RANKL/M-CSF-induced MMP9 gene upregulation at 5 uM measured after 3 days by RT-PCR analysis; assay type: tissue-based; conditions: time 3.0 day
[15] = test system: BMDM; assay: Inhibition of p38 MAPK in BMM (unknown origin) assessed as suppression of RANKL/M-CSF-induced Nftac1 upregulation at 5 uM measured after 3 days by Western blot analysis; assay type: tissue-based; conditions: time 3.0 day
[16] = test system: BMDM; assay: Inhibition of p38 MAPK in BMM (unknown origin) assessed as inhibition of RANKL/M-CSF-induced osteoclast differentiation by measuring reduction in TRAP-positive multinucleated cells at 5 uM treated on day 0-4 by TRAP staining based assay; conditions: time 4.0 day
[17] = test system: BMDM; assay: Inhibition of p38 MAPK in BMM (unknown origin) assessed as inhibition of RANKL/M-CSF-induced osteoclast differentiation by measuring reduction in TRAP-positive multinucleated cells at 5 uM treated on day 2-4 by TRAP staining based assay relative to control; conditions: time 3.0 day
[18] = Cytotoxicity against BMM (unknown origin) assessed as reduction in cell viability at 5 uM after 3 days in presence of M-CSF by MTT assay; assay type: tissue-based; conditions: bmdm, 72 h, time 3 day
[19] = test system: BMDM; assay: Inhibition of p38 MAPK in BMM (unknown origin) assessed as inhibition of RANKL/M-CSF-induced osteoclast differentiation by measuring reduction in TRAP-positive multinucleated cells at 5 uM treated on day 0-2 by TRAP staining based assay relative to control; assay type: tissue-based; conditions: time 2.0 day
[20] = test system: BMDM; assay: Inhibition of p38 MAPK in BMM (unknown origin) assessed as inhibition of M-CSF/RANKL-induced osteoclastogenesis by measuring reduction in multinucleated TRAP+ cells at 5 uM measured after 4 days by TRAP-staining based analysis relative to control; assay type: cell-based; conditions: time 4.0 day
[21] = test system: BMDM; assay: Inhibition of p38 MAPK in BMM (unknown origin) assessed as inhibition of M-CSF/RANKL-induced osteoclastogenesis by measuring reduction in multinucleated TRAP+ cells measured after 4 days by TRAP-staining based analysis; assay type: cell-based; conditions: dose microM 1-5, time 4.0 day
[22] = test system: BMDM; assay: Modulation of NF-kappaB in Sprague-Dawley rat BMM assessed as inhibition of M-CSF/RANKL-induced osteoclast differentiation by measuring decrease in TRAP-positive multinucleated cells at 100 uM measured after 5 days by TRAP-staining based assay relative to control; assay type: tissue-based; conditions: filed as modulator, time 5.0 day

O=C(O[C@@H]1Cc2c(cc(O)c(Cc3c(O)cc(O)c4c3O[C@H](c3cc(O)c(O)c(O)c3)[C@H](OC(=O)c3cc(O)c(O)c(O)c3)C4)c2O)O[C@@H]1c1cc(O)c(O)c(O)c1)c1cc(O)c(O)c(O)c1
inhibition [1]: inactive
inhibition [2]: Active
inhibition [3]: inactive
inhibition [4]: inactive
inhibition [5]: inactive
inhibition [6]: inactive
inhibition [7]: inactive
inhibition [8]: Active
inhibition [9]: Active
inhibition [10]: Active
inhibition [11]: Active
inhibition [12]: Active
inhibition [13]: Active
inhibition [14]: Active
inhibition [15]: Active
inhibition [16]: Active
inhibition [17]: 34.5%
Activity [18]: Non-Toxic
inhibition [19]: 95.9%
inhibition [20]: 98.1%
inhibition [21]: Dose-dependent effect

O=C(O[C@@H]1Cc2c(O)cc(O)cc2O[C@@H]1c1cc(O)c(O)c(O)c1)c1cc(O)c(O)c(O)c1
inhibition [22]: 92%
